Tests used:
LXRβ full length (FL) = biological target: T1, LXRβ full length (FL) (Homo sapiens, UniProt P55055, DUP175-175); assay: LXR Gal4 reporter transient transfection assay (M2H), Gal4β FL; type: cell-based; details: HEK293 cells; read-out: M2H Gal4β FL activity range (EC50)
T1 construct: the full length (FL) proteins of LXRα (amino acids 1-447); NP005684; NP009052; expressed in transfected cells; host or cells: HEK293
T1 sequence (P55055 with tags, fused parts or gaps DUP175-175): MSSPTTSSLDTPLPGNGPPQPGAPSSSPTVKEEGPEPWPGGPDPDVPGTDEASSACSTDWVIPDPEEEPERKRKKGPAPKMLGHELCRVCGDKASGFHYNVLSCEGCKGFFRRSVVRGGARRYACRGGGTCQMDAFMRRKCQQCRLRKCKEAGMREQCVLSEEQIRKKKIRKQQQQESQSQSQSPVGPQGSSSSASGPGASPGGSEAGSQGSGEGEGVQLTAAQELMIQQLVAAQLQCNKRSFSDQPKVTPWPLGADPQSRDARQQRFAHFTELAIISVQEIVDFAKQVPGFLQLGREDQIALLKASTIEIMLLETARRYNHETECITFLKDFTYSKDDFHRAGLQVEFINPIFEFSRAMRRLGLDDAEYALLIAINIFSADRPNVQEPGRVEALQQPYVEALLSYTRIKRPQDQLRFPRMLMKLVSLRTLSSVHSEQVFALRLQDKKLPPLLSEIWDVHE
Protocol: (§1) The tested compounds were usually dissolved, tested and stored as 20 mM stock solutions in DMSO. Since sulfonyl acetic acid derivatives tend to decarboxylate under these conditions, these stock solutions were prepared, tested and stored as 20 mM DMSO stock solutions containing 100 mM trifluoroacetic acid (5 equivalents). Sulfonyl acetic acid derivatives are shelf stable as solid at rt for long time as reported by Griesbrecht et al. (Synlett 2010:374) or Faucher et al. (J. Med. Chem. 2004; 47:18).
(§2) LXR Gal4 Reporter Transient Transfection Assays
(§3) LXRα and LXRβ activity status was determined via detection of interaction with coactivator and corepressor proteins in mammalian two-hybrid experiments (M2H). For this, via transient transfection the full length (FL) proteins of LXRα (amino acids 1-447; NP005684; SEQ ID NO:7) or LXRβ-(amino acids 1-461; NP009052; SEQ ID NO:8) or the ligand-binding domains (LBD) of LXRα (amino acids 155-447 SEQ ID NO:3) or LXRβ (amino acids 156-461; SEQ ID NO:4) were expressed from pCMV-AD (Stratagene) as fusions to the transcriptional activation domain of NFkB. As cofactors, domains of either the steroid receptor coactivator 1 (SRC1; amino acids 552-887; SEQ ID NO:5) or of the corepressor NCoR (amino acids 1903-2312 SEQ ID NO:6) were expressed as fusions to the DNA binding domain of the yeast transcription factor GAL4 (from pCMV-BD; Stratagene). Interaction was monitored via activation of a coexpressed Firefly Luciferase Reporter gene under control of a promoter containing repetitive GAL4 response elements (vector pFRLuc; Stratagene). Transfection efficiency was controlled via cotransfection of constitutively active pRL-CMV Renilla reniformis luciferase reporter (Promega). HEK293 cells were grown in minimum essential medium (MEM) with 2 mM L-glutamine and Earle's balanced salt solution supplemented with 8.3% fetal bovine serum, 0.1 mM non-essential amino acids, 1 mM sodium pyruvate, at 37° C. in 5% CO2. 3.5×10^4 cells/well were plated in 96-well cell culture plates in growth medium supplemented with 8.3% fetal bovine serum for 16-20 h to ˜90% confluency. For transfection, medium was taken off and LXR and cofactor expressing plasmids as well as the reporter plasmids are added in 30 μL OPTIMEM/well including polyethylene-imine (PEI) as vehicle. Typical amounts of plasmids transfected/well: pCMV-AD-LXR (5 ng), pCMV-BD-cofactor (5 ng), pFR-Luc (100 ng), pRL-CMV (0.5 ng). Compound stocks were prepared in DMSO, prediluted in MEM to a total volume of 120 μL, and added 4 h after addition of the transfection mixture (final vehicle concentration not exceeding 0.2%). Cells were incubated for additional 16 h, lysed for 10 min in 1× Passive Lysis Buffer (Promega) and Firefly and Renilla luciferase activities were measured sequentially in the same cell extract using buffers containing D-luciferine and coelenterazine, respectively. Measurements of luminescence were done in a BMG-Iuminometer.

LXRα full length (FL) = biological target: T2, LXRα full length (FL) (Homo sapiens, UniProt Q13133); assay: LXR Gal4 reporter transient transfection assay (M2H), Gal4α FL; type: cell-based; details: HEK293 cells; for EC50: read-out: M2H Gal4α FL activity range (EC50)
T2 construct: the full length (FL) proteins of LXRα (amino acids 1-447); NP005684; expressed in transfected cells; host or cells: HEK293
T2 sequence (Q13133 1-447): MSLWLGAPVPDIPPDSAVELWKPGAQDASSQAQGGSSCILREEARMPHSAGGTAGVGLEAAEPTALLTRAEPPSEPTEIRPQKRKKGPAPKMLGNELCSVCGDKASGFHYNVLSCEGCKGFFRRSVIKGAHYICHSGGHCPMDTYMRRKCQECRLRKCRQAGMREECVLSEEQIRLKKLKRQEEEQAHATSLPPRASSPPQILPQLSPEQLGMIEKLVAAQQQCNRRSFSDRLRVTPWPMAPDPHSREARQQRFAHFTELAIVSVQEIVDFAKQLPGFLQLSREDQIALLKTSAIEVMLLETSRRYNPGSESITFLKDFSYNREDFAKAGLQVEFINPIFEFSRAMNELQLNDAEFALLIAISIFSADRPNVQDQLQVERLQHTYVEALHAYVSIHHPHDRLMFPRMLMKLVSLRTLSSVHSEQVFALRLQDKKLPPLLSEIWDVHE
Protocol: as §1, §2, §3

[1] = biological target: T3, GST-LXRβ ligand-binding domain (Homo sapiens, UniProt P55055, DUP175-175); assay: TR-FRETβ activity assay (LXRβ-LBD / NCoA3 coactivator peptide, prestimulated with 24(S)-25-epoxycholesterol); type: biochemical; set-up: key to behavior in FRET assay: ag=agonist; ia=inverse agonist; details: for EC50: read-out: FRETβ activity range (EC50); for behavior in FRET assay: agonist or inverse agonist
T3 construct: amino acids 156-461; NP009052; made in house; host or cells: E. coli
T3 sequence (P55055 with tags, fused parts or gaps DUP175-175): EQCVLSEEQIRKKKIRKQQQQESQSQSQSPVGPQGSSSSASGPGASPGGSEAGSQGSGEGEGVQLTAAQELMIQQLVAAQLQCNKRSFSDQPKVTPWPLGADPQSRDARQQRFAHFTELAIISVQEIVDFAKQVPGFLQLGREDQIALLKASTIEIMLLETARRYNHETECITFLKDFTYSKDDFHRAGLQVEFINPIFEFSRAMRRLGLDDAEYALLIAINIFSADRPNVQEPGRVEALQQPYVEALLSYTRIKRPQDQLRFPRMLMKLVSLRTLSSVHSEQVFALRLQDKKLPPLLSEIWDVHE
Protocol: The tested compounds were usually dissolved, tested and stored as 20 mM stock solutions in DMSO. […] Sulfonyl acetic acid derivatives are shelf stable as solid at rt for long time as reported by Griesbrecht et al. (Synlett 2010:374) or Faucher et al. (J. Med. Chem. 2004; 47:18). TR-FRETβ Activity Assay Recombinant GST-LXRβ ligand-binding domain (LBD; amino acids 156-461; NP009052; SEQ ID NO:2) was expressed in E. coli and purified via gluthatione-sepharose affinity chromatography. N-terminally biotinylated NCoA3 coactivator peptide (SEQ ID NO:1) was chemically synthesized (Eurogentec). […] Finally, a detection mix was added containing anti GST-Tb cryptate (CisBio; 610SAXLB) and Streptavidin-XL665 (CisBio; 610SAXLB) as fluorescent donor and acceptor, respectively, as well as the coactivator peptide and LXRβ-LBD protein (SEQ ID NO:2). The reaction was mixed thoroughly, equilibrated for 1 h at 4° C. and vicinity of LXRβ and coactivator peptide was detected by measurement of fluorescence in a VictorX4 multiplate reader (PerkinElmer Life Science) using 340 nm as excitation and 615 and 665 nm as emission wavelengths. Assays were performed in triplicates. Final Assay Concentrations of Components: 240 mM KCl, 1 μg/μL BSA, 0.002% Triton-X-100, […] anti GST-Tb cryptate, 2.5 ng/μL Streptavidin-XL665, coactivator peptide (400 nM), LXRβ protein ([…], i.e. 76 nM)

[2] = 1 μM 24(S)-25-epoxycholesterol as prestimulating agonist

Cc1ccc2ccccc2c1S(=O)(=O)N(Cc1ccc(-c2cccc(S(=O)(=O)CC(=O)O)c2)cc1)Cc1ccc(C(F)(F)F)o1 [Example 10, 2-((4′-(((2-Methyl-N-((5-(trifluoromethyl)furan-2-yl)methyl)naphthalene)-1-sulfonamido)methyl)[1,1′-biphenyl]-3-yl)sulfonyl)acetic acid]
EC50 (LXRβ full length (FL)): 100 to 1000 nM | EC50 (LXRα full length (FL)): 100 to 1000 nM | EC50 [1, 2]: 100 to 1000 nM | behavior in FRET assay [1]: ia

O=C(O)CS(=O)(=O)c1cccc(-c2ccc(CN(Cc3ccc(C(F)(F)F)o3)S(=O)(=O)c3c(Cl)cccc3Cl)cc2)c1 [Example 10/1]
EC50 (LXRβ full length (FL)): 100 to 1000 nM | M2H Gal4α FL activity range (EC50) (LXRα full length (FL)): inactive | EC50 [1, 2]: 1000 to 10000 nM | behavior in FRET assay [1]: ag

Cc1cc(C)c(S(=O)(=O)N(Cc2ccc(-c3cccc(S(=O)(=O)CC(=O)O)c3)cc2)Cc2cccc(C(F)(F)F)c2)c(C)c1 [Example 11, 2-((4′-(((2,4,6-Trimethyl-N-(3-(trifluoromethyl)benzyl)phenyl)sulfonamido)methyl)-[1,1′-biphenyl]-3-yl)sulfonyl)acetic acid]
EC50 (LXRβ full length (FL)): 1000 to 10000 nM | EC50 (LXRα full length (FL)): 1000 to 10000 nM | EC50 [1, 2]: 1000 to 10000 nM | behavior in FRET assay [1]: ia

Cc1cc(F)c(S(=O)(=O)N(Cc2ccc(-c3cccc(S(=O)(=O)CC(=O)O)c3)cc2)Cc2ccc(C(F)(F)F)o2)c(F)c1 [Example 14/1]
EC50 (LXRβ full length (FL)): 1000 to 10000 nM | M2H Gal4α FL activity range (EC50) (LXRα full length (FL)): inactive | EC50 [1, 2]: 1000 to 10000 nM | behavior in FRET assay [1]: ag

Cc1cc(C)c(S(=O)(=O)N(Cc2ccc(-c3cccc(S(=O)(=O)CC(=O)O)c3)cc2)C(C)(C)c2ccc(C(F)(F)F)o2)c(C)c1 [Example 17, 2-((4′-(((2,4,6-Trimethyl-N-(2-(5-(trifluoromethyl)furan-2-yl)propan-2-yl)phenyl)sulfon-amido)methyl)-[1,1′-biphenyl]-3-yl)sulfonyl)acetic acid]
EC50 (LXRβ full length (FL)): 1000 to 10000 nM | EC50 (LXRα full length (FL)): 1000 to 10000 nM | EC50 [1, 2]: 1000 to 10000 nM

Cc1cc(C)c(S(=O)(=O)N(CCc2ccc(C(F)(F)F)o2)Cc2ccc(-c3cccc(S(=O)(=O)CC(=O)O)c3)cc2)c(C)c1 [Example 17/1]
EC50 (LXRβ full length (FL)): 1000 to 10000 nM | EC50 (LXRα full length (FL)): 1000 to 10000 nM | EC50 [1, 2]: 1000 to 10000 nM | behavior in FRET assay [1]: ia

CC(C)(C(=O)O)c1cccc(-c2ccc(CN(Cc3ccc(C(F)(F)F)o3)S(=N)(=O)c3cccc4ccccc34)cc2)c1 (centres unmarked) [Example 26, 2-Methyl-2-(4′-((N-((5-(trifluoromethyl)furan-2-yl)methyl)naphthalene-1-sulfonoamid-imidamido)methyl)-[1,1′-biphenyl]-3-yl)propanoic acid]
EC50 (LXRβ full length (FL)): < 100 nM | EC50 (LXRα full length (FL)): < 100 nM | EC50 [1, 2]: 100 to 1000 nM | behavior in FRET assay [1]: ia

Cc1ccc2ccccc2c1[S+]([O-])N(Cc1ccc(-c2cccc(C(C)(C)C(=O)O)c2)cc1)Cc1ccc(C(F)(F)F)o1 (centres unmarked) [Example 27, 2-Methyl-2-(4′-((((2-methylnaphthalen-1-yl)sulfinyl)((5-(trifluoromethyl)furan-2-yl)methyl)amino)methyl)-[1,1′-biphenyl]-3-yl)propanoic acid]
EC50 (LXRβ full length (FL)): < 100 nM | EC50 (LXRα full length (FL)): < 100 nM | EC50 [1, 2]: 100 to 1000 nM | behavior in FRET assay [1]: ia

Cc1ccc2cccnc2c1S(=O)(=O)N(Cc1ccc(-c2cccc(C(C)(C)C(=O)NS(C)(=O)=O)c2)cc1)Cc1ccc(C(F)(F)F)o1 [Example 29, 2-Methyl-2-(4′-(((7-methyl-N-((5-(trifluoromethyl)furan-2-yl)methyl)quinoline)-8-sulfon-amido)methyl)-[1,1′-biphenyl]-3-yl)-N-(methylsulfonyl)propanamide]
EC50 (LXRβ full length (FL)): 100 to 1000 nM | EC50 (LXRα full length (FL)): 100 to 1000 nM | FRETβ activity range (EC50) [1, 2]: inactive

Cc1ccc2cccnc2c1S(=O)(=O)N(Cc1ccc(-c2cccc(C(C)(C)C(=O)NO)c2)cc1)Cc1ccc(C(F)(F)F)o1 [Example 30, N-Hydroxy-2-methyl-2-(4′-(((7-methyl-N-((5-(trifluoromethyl)furan-2-yl)methyl)quinoline)-8-sulfonamido)methyl)-[1,1′-biphenyl]-3-yl)propanamide]
EC50 (LXRβ full length (FL)): < 100 nM | EC50 (LXRα full length (FL)): < 100 nM | EC50 [1, 2]: 100 to 1000 nM | behavior in FRET assay [1]: ag

Source: patent US20200115357A1, “LIVER X RECEPTORS (LXR) MODULATORS” (Phenex-FXR GmbH, priority 2017, published 2020)
